# What was measured:
# [1] = tested on: IGF1/insulin receptor; assay: IGF1/insulin receptor phosphorylation in foetal NSC cultures; assay type: cell-based, mouse
# Procedure: Specifically, D114 induced the phosphorylation of IGF1/insulin receptor. Peak phosphorylation occurred at 2-5 minutes.
# (§1) It was determined that insulin facilitates Notch cleavage using immunocytochemical detection.
# [2] = tested on: cultures from Hes3 knock-out mice; assay: Survival of adult SVZ stem cell cultures, Hes3 knock-out mice; assay type: cell-based, mouse; settings: Hes3 knock-out culture
# Procedure: (§2) It was determined that adult mouse subventricular zone central nervous system stem cell cultures from wild-type mice respond to D114 by generating twenty-four times more cells, whereas cultures from Hes3 knock-out mice respond to D114 by generating only three times more cells. Thus, in adult mouse neural stem cell cultures, D114 greatly promotes the survival of wild-type cells (23.7±1.7 fold increase), whereas it only slightly stimulates Hes3 knock-out culture survival (2.9±0.2 fold increase).
# [3] = tested on: adult rats; assay: Intraventricular infusion in normal adult rats, BrdU labeled cells; assay type: in vivo, rat; settings: for concentration in the pump at which maximal effects were achieved: constant FGF2 2.5 μg/ml
# Procedure: In-vivo Experiments: All drugs were infused over one week using an Alzet osmotic pump (model 2001 delivering at a rate of 1 μl/hr for seven days). Briefly, an intracerebral cannula connected to the pump was inserted into the right lateral ventricle using the following stereotaxic coordinates: bregma AP +0, Lateral −1.5 mm dorso-ventral 3.3 mm. Animals received IP injection of the tracer BrdU (50 mg/kg) every 12 hours for 5 days beginning on day one post-operatively to label dividing cells.
# Immuno-positive cells were analyzed by confocal microscopy counted using a non-biased system on slides obtained from homologous coronal slices containing the infarct of each animal at the position between +0.2 and −3.8 mm from the center of the bregma according to stereotaxic coordinates. Cells were enumerated in […] regions of interest, on both the ipsilateral and contralateral hemispheres (to cannula, or cannula and ischemic focus): subventricular zone (SVZ), corpus callosum and white matter and the peri-infarct cortex.
# The effect of intraventricular administration of Delta-4 was studied in adult rats. As in other tissues, the numbers of stem cells in the adult CNS are precisely controlled. […] In vivo manipulations were designed to ask if Notch ligands can act alone or substantially alter the effect of FGF2 on the numbers of proliferating cells in the SVZ of the normal brain. Animals (N=5-6 per treatment) were fitted with a mini-osmotic pump administering artificial cerebrospinal fluid (ACSF, vehicle), FGF2, Delta-4, or a combination FGF2+Delta-4 for one week into the ventricles of three-month old rats. Animals were also given twice-daily injections of bromodeoxyuridine (BrdU) from post-op days two to six to label cells generated during this time window. Two groups of animals were analyzed at day 7 and day 45 relative to the initiation of protein delivery. Delta-4 doses were chosen to provide a roughly equal concentration in the rat adult cerebrospinal fluid as in the cell culture medium of our in vitro experiments.
# [4] = tested on: Notch1; assay: Notch activation (Notch1IC / Notch ICD) immunocytochemical detection; assay type: cell-based, mouse; settings: Insulin withdrawal, 2 days and then treat for 1 h
# From the text: Antibodies were used that specifically bind: Notch1IC (Chemicon, 5352), GFP (Molecular Probes, A11122), Oct3/4 (Santa Cruz, sc-5279), SSEA1 and SSEA4 (Developmental Studies HybridomaBank), Tra-1-60 (Chemicon, MAB4360), Tra-1-81 (Chemicon, MAB4381), human nestin (Chemicon, MAB5326), Sox-1 (Gift from Dr. R Lovell-Badge), TH (Pel-Freez, P40101-0), Tuj1 (Covance, MMS-435P), rat nestin (McKay Lab), GFAP (Dako, z0334), CNPase (Chemicon, MAB326), BrdU (Accurate, H5903), DCX (Santa Cruz, sc-8066), Sox2 (R&D, MAB2018), Hu (Molecular Probes, A21271).
# To assay for Notch activation, cultures were treated with the Notch ligands for 1 hour and Notch1 activation was detected by immunocytochemical staining of Notch1IC (FIG. 1b).
# as §1
# [5] = tested on: rat adult subventricular zone central nervous system stem cell cultures; assay: Survival of adult SVZ CNS stem cell cultures with insulin and Dll4; assay type: cell-based
# Procedure: As there was a tight correlation between the Notch survival pathway and Hes3, it was investigated as to whether Hes3 is a mediator of the Notch pro-survival signalling. It was determined that both insulin and Notch activation promote the survival of foetal and adult neural stem cell cultures and their effects are additive (Tables 8-9).
# [6] = tested on: adult rat subventricular zone (SVZ); assay: Dividing (BrdU+) cells in SVZ after single lateral ventricle injection; assay type: in vivo; settings: BrdU for 3 days, sacrificed on the 5th day
# Procedure: In vivo, Notch and insulin also increase the number of dividing cells in the adult rat subventricular zone (SVZ) 5 days after a single injection It was determined that Notch and insulin co-operate to promote new (BrdU+) cells in vivo. Specifically, the reagents infused in the lateral ventricle of adult rats as a single injection. The rats were then given BrdU for 3 days and sacrificed on the 5th day (Table 10).
# [7] = tested on: adult mouse subventricular zone central nervous system stem cell cultures from wild-type mice; assay: Survival of adult SVZ stem cell cultures, wild-type mice; assay type: cell-based
# Procedure: as §2
# [8] = tested on: Akt; assay: Akt phosphorylation immunoblot in CNS stem cells; assay type: cell-based, mouse; settings: for Akt (total) / Akt-pS473 / Akt-pT308: absence of insulin
# Procedure: Insulin in the medium is also thought to promote cell survival. […] Seeding cells in the absence of insulin caused the plating efficiency measured at five days to drop to 29.9%±37.9 (FIG. 1e). Delta-4 was able to compensate for the lack of insulin in the medium, and restored plating efficiency (125%±19.4). Because Notch activation improved survival, activation of Akt, a ser/threonine kinase known to be involved in cell survival, was assayed. Notch activation rapidly (5 minutes) promoted the phosphorylation of Akt on Ser473 and […] in both the presence and absence of insulin (FIG. 1f).
# [9] = tested on: Primary human central nervous system neural stem cell from pediatric subventricular zones; assay: Colony generation of primary human neural stem cells; assay type: cell-based; settings: expanded in FGF2
# From the text: Pharmacological Notch activation is beneficial also to primary neural stem cell cultures from non-cancerous human brain. Primary human central nervous system neural stem cell were produced from pediatric subventricular zones. These cells expanded in FGF2, and upon FGF2 withdrawal differentiated to produce colonies containing neurons, astrocytes, and oligodendrocytes (see Table 11). […] FGF2 withdrawal and subsequent differentiation of central nervous system neural stem cell cultures (fetal mouse) regulated Hes3 expression and STAT3 expression and phosphorylation in neurons, astrocytes, oligodendrocytes.
# [10] = tested on: p38, SMAD1/5/8, MSK-1, STAT3 phosphorylation in hES cells; assay: Signalling immunoblots in hES cells; settings: absence of MEF, within one hour
# Procedure: Immunoblotting: Immunoblotting was performed as previously described (Panchision et al., Genes Dev 15:2094-110, 2001). The following antibodies were used in the experiments described below: pSer473-Akt (92715), pSer308-Akt (9275), pSer2448-mTOR (29715), pThr180/Tyr182-p38 (9211), pSMAD1/5/8 (9511) from Cell Signaling; STAT3 (482), pSer727-STAT3 (8001-R), pTyr705-STAT3 (7993) from Santa Cruz; Sonic Hedgehog (R&D, AF464), nucleostemin (McKay Lab), Hes3 (Chemicon, AB5706), α-tubulin (Sigma, T-6074).
# To determine whether in the hES system JAK inhibition reduced p38 activity, cells were treated in the absence of MEF with JAK inhibitor for different times and assayed for p38 phosphorylation.
# [11] = Insulin withdrawal, 2 days and then treat for 1 h
compound,measurement,setting,value
Delta-4: soluble Notch ligand Delta-4 (1389-D4) from R&D,pIGF1 (19H7),[1]; [11],Low
same,pIGF1 (3021),[1]; [11],Low
same,time of peak phosphorylation of IGF1/insulin receptor,[1]; foetal NSC cultures,2 to 5 min
same,"survival, fold increase in cells",[2],2.9±0.2 fold
same,"number of BrdU+ cells in SVZ, corpus callosum and cerebral cortex","[3]; 45 days, relative to FGF2 treated animals",increased number of BrdU+ cells
same,concentration in the pump at which maximal effects were achieved,[3]; contralateral site,~4.2 µg/mL
same,number of proliferating cells / BrdU incorporation,"[3]; day 7, contralateral site",induced significant increases in BrdU incorporation
same,"number of BrdU labeled cells in SVZ, corpus callosum and cortex","[3]; day 7, hemisphere ipsilateral to the cannula",increased the number of BrdU labeled cells
same,concentration in the pump at which maximal effects were achieved,[3]; ipsilateral site,approximately 0.42 μg/ml
same,Notch ICD,[4],Low
same,Cell #,[5],High
same,Cell #,[6],High
same,"survival, fold increase in cells",[7],23.7±1.7 fold
same,Akt (total),"[8]; Dll4, 5 min",Medium
same,Akt-pS473,"[8]; Dll4, 5 min",High
same,Akt-pT308,"[8]; Dll4, 5 min",High
same,Akt (total),"[8]; Dll4, 10 min",Medium
same,Akt-pS473,"[8]; Dll4, 10 min",Medium
same,Akt-pT308,"[8]; Dll4, 10 min",Medium
same,time of peak Akt phosphorylation on Ser473 and Ser308,"[8]; presence and absence of insulin, Western blotting",5 min
same,"colonies containing neurons, astrocytes, and oligodendrocytes",[9],generated significantly more of these colonies
"CC(C)(C)c1nc2c3ccc(F)cc3c3c(=O)[nH]ccc3c2[nH]1 [JAK Inhibitor, 2-(1,1-Dimethylethyl)-9-fluoro-3,6-dihydro-7H-benz[h]-imidaz[4,5-f]isoquinolin-7-one]",p38 phosphorylation,[10],significantly reduced p38 phosphorylation
